Measurements: patent US20080299140A1, “Immunogenic Composition and Peptide Sequences for Prevention and Treatment of an Hsv Condition” (priority 2002, published 2008)
Substitutions are numbered along the chain they refer to. Like-named read-outs stand apart in the source and are kept apart here.

Key:
[1] = target: T1, DRB4=HLA-DR(α1*0101,α4*0101) (Homo sapiens, UniProt P01903+P13762, G164S); test: HLA-DR specific binding assay, DRB4 (DR53)
T1 construct: endogenous in cells

[2] = target: T2, DR13=HLA-DR(α1*0101,α1*1301) (Homo sapiens, UniProt P01903+P01911, A100E/A169T/K41T/L162R/M171V/P40S/Q125H/Q178H/Q39Y/Q99D/R42S/S66N/T262R/W38E/Y61H); test: HLA-DR specific binding assay, DR13
T2 construct: endogenous in cells; host or cells: 0206AD (EBV homozygous B cell line)

[3] = target: T3, DR1=HLA-DR(α1*0101,α1*0101) (Homo sapiens, UniProt P01903+P01911, A100R/D57E/F55L/F60I/F76Y/I96L/L162R/M171V/P40L/Q125E/R42F/V115G/Y59C); test: biochemical; type: binding
T3 construct: endogenous in cells; host or cells: EBV homozygous human B cell line

[4] = target: T4, DR15=HLA-DR(α1*0101,α1*1501) (Homo sapiens, UniProt P01903+P01911); test: HLA-DR specific binding assay, DR15
T4 construct: endogenous in cells; host or cells: EBV homozygous human B cell line

[5] = target: T5, DR3=HLA-DR(α1*0101,α1*0301) (Homo sapiens, UniProt P01903+P01911, A100K/A102G/A103R/A169T/F55Y/I96L/K41T/L162R/M171V/P40S/Q125H/Q178H/Q39Y/R42S/S66N/T106N/T262R/W38E/Y61H); test: HLA-DR specific binding assay, DR3
T5 construct: endogenous in cells; host or cells: STEILIN (EBV homozygous B cell line)

[6] = target: T6, DP401=HLA-DP(α1*0101,α1*0401) (Homo sapiens, UniProt P04440+P20036); test: biochemical; type: binding
T6 sequence (P20036 32-260 limits assumed): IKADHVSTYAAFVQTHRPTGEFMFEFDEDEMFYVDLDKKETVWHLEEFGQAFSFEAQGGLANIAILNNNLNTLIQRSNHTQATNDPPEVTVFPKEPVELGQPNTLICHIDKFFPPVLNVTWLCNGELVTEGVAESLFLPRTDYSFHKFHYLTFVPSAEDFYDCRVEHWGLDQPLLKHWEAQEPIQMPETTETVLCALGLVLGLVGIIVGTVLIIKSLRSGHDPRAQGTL
T6 sequence (P04440 30-258): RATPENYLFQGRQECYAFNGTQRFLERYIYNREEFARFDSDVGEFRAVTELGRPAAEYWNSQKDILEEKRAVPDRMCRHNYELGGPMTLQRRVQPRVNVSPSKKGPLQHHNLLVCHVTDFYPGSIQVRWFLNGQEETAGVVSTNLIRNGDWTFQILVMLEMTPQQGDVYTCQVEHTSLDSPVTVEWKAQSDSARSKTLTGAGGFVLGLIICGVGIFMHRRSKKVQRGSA

[7] = tested on: HLA-DR and HLA-DP molecules; test: MHC class II binding assays, panel of twelve HLA class II molecules (number of alleles bound); settings: number of the twelve class II MHC alleles bound; title: Threshold 600 nM/5 alleles
[8] = target: T7, DR11=HLA-DR(α1*0101,α1*1101) (Homo sapiens, UniProt P01903+P01911, A100R/A169T/A87E/I96F/K41T/L162R/M171V/P40S/Q125H/Q178H/Q39Y/Q99D/R42S/S66Y/T262R/V115G/W38E); test: biochemical; type: binding
T7 construct: endogenous in cells; host or cells: SWEIG (EBV homozygous B cell line)

[9] = target: T8, DR4=HLA-DR(α1*0101,α1*0401) (Homo sapiens, UniProt P01903+P01911, A100K/A169T/F76Y/I96L/K127E/L162R/M171V/N62H/P40V/Q125Y/R42H/S133A/S149N/S66Y/V115G/V209L/W38E); test: biochemical; type: binding
T8 construct: endogenous in cells; host or cells: BOLETH (EBV homozygous B cell line)

[10] = target: T9, DP402 DP (α1*0101, α1*0402) (Homo sapiens, UniProt P04440+P20036, A65V/A84D/A85E/L207M); test: biochemical; type: binding
T9 sequence (P20036 29-260): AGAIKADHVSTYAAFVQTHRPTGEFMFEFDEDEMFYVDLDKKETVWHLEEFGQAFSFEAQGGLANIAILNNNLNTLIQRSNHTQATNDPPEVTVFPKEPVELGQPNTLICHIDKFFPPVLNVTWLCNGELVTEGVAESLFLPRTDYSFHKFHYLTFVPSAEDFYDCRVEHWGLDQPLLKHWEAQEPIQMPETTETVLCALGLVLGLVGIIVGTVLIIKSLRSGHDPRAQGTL
T9 sequence (P04440 30-258 A65V/A84D/A85E): T6 sequence (P04440 30-258) with A36V, A55D, A56E

[11] = target: T10, DR7=HLA-DR(α1*0101,α1*0701) (Homo sapiens, UniProt P01903+P01911, A100R/A102G/A103Q/D57E/D86V/E43K/F76Y/K127E/L162R/M171V/P40G/Q125H/Q99D/R33Q/R42Y/R54Q/S133A/S66F/T210M/V115G/Y107V/Y59L/Y89S); test: HLA-DR specific binding assay, DR7
T10 construct: endogenous in cells; host or cells: EBV homozygous human B cell line

[12] = target: T11, DRB3=HLA-DR(α1*0101,α3*0101) (Homo sapiens, UniProt P01903+P79483); test: HLA-DR specific binding assay, DRB3 (DR52)
T11 construct: endogenous in cells; host or cells: STEILIN or 0206AD (both typed DRB3*0101)
T11 sequence (P79483 30-266, other chains not shown): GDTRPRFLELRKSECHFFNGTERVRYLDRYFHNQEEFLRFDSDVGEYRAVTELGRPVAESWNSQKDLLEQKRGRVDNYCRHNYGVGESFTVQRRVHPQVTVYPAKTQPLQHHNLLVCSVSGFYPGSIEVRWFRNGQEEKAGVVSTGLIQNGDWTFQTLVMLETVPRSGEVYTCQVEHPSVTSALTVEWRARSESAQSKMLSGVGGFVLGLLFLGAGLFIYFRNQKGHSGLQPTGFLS

[13] = target: T12, DRB5=HLA-DR(α1*0101,α5*0101) (Homo sapiens, UniProt P01903+Q30154); test: biochemical; type: binding; settings: Table V; […]; read-out: IC50 DRB5
T12 construct: endogenous in cells; host or cells: EBV homozygous human B cell line
T12 sequence (Q30154 30-266, other chains not shown): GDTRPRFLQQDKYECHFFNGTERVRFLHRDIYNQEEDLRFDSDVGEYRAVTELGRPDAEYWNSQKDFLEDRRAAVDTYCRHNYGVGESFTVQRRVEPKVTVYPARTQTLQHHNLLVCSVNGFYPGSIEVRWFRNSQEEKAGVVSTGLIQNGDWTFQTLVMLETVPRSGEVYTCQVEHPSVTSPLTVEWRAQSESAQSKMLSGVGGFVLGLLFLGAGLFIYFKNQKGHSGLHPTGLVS

[14] = Table V, […], read-out: IC50 DR1
[15] = […], Class II MHC allele DR1, read-out: IC50, DR1
[16] = IC50, DR3, Class II MHC allele DR3
[17] = Class II MHC allele DR11, read-out: IC50, DR11
[18] = Table V, […], read-out: IC50 DR11
[19] = Class II MHC allele DR4, read-out: IC50, DR4
[20] = Table V, […], read-out: IC50 DR4
[21] = IC50, DRD3, Class II MHC allele DRD3 (so in the source)

Structure (SMILES) | IC50 [1] | IC50 [2] | IC50 [3, 14] | IC50 [3, 15] | IC50 [4] | IC50 [5, 16] | IC50 ([5]; IC50 DR3, Table V, […]) | IC50 ([6]; Class II MHC allele DP401) | IC50 ([6]; Table V, […]) | Range [7] | IC50 [8, 17] | IC50 [8, 18] | IC50 [9, 19] | IC50 [9, 20] | IC50 ([10]; Class II MHC allele DP402) | IC50 ([10]; Table V, […]) | IC50 [11] | IC50 [12, 21] | IC50 ([12]; IC50 DRB3, Table V, […]) | IC50 [13] | also measured
CC[C@H](C)[C@H](NC(=O)[C@H](CCCCN)NC(=O)[C@H](CC(C)C)NC(=O)[C@H](CO)NC(=O)[C@H](Cc1ccc(O)cc1)NC(=O)[C@@H](NC(=O)[C@H](C)NC(=O)[C@@H](NC(=O)[C@@H](NC(=O)[C@H](CCCNC(=N)N)NC(=O)[C@@H](N)CCC(N)=O)[C@@H](C)O)C(C)C)C(C)C)C(=O)N[C@@H](C)C(=O)NCC(=O)N[C@@H](Cc1c[nH]c2ccccc12)C(=O)N[C@@H](Cc1c[nH]cn1)C(=O)NCC(=O)N1CCC[C@H]1C(=O)N[C@@H](CCCCN)C(=O)N[C@@H](C)C(=O)N1CCC[C@H]1C(=O)N[C@@H](Cc1ccc(O)cc1)C(=O)N[C@H](C(=O)N[C@@H](CO)C(=O)N[C@H](C(=O)N[C@@H](CC(C)C)C(=O)N[C@@H](CC(C)C)C(=O)N1CCC[C@H]1C(=O)N1CCC[C@H]1C(=O)N[C@@H](CCC(=O)O)C(=O)N[C@@H](CC(C)C)C(=O)O)[C@@H](C)O)[C@@H](C)O [HSV 40] | 1160 nM | 1590 nM | 1160 nM | 1160 nM | 2 nM | 2390 nM | 2390 nM | 1360 nM | 1360 nM | 4 | 39 nM | 39 nM | 9920 nM | 9920 nM | 7210 nM | 7210 nM | 20 nM | > 100000 nM | > 100000 nM |  | 
CSCC[C@H](NC(=O)[C@H](CCCCN)NC(=O)[C@H](CC(C)C)NC(=O)[C@H](CO)NC(=O)[C@H](C)NC(=O)[C@H](CC(=O)O)NC(=O)[C@@H](NC(=O)[C@H](CC(C)C)NC(=O)[C@H](C)NC(=O)[C@H](Cc1ccc(O)cc1)NC(=O)[C@@H](N)CCCCN)C(C)C)C(=O)N[C@@H](C)C(=O)N[C@@H](CC(=O)O)C(=O)N1CCC[C@H]1C(=O)N[C@@H](CC(N)=O)C(=O)N[C@@H](CCCNC(=N)N)C(=O)N[C@@H](Cc1ccccc1)C(=O)N[C@@H](CCCNC(=N)N)C(=O)NCC(=O)N[C@@H](CCCCN)C(=O)N[C@@H](CC(=O)O)C(=O)N[C@@H](CC(C)C)C(=O)N1CCC[C@H]1C(=O)O [HSV 29] | 52500 nM | > 100000 nM | 1230 nM | 1230 nM | 24500 nM | 120 nM | 120 nM | 17500 nM | 17500 nM | 3 | 5250 nM | 5250 nM | 82 nM | 82 nM | 1630 nM | 1630 nM | 894 nM | 1400 nM | 1400 nM | 8 nM | IC50 ([2]; read-out: IC50, DR13, Class II MHC allele DR13): > 100000 nM
CC[C@H](C)[C@H](NC(=O)[C@H](CCCCN)NC(=O)[C@@H](NC(=O)[C@H](CC(C)C)NC(=O)[C@H](CCCNC(=N)N)NC(=O)[C@H](CC(C)C)NC(=O)[C@H](Cc1ccc(O)cc1)NC(=O)[C@@H](NC(=O)CNC(=O)[C@H](C)NC(=O)[C@@H](NC(=O)[C@H](CCC(=O)O)NC(=O)[C@H](Cc1ccccc1)NC(=O)[C@H](C)NC(=O)[C@@H]1CCCN1C(=O)[C@H](C)NC(=O)[C@H](Cc1c[nH]cn1)NC(=O)[C@H](CCSC)NC(=O)[C@H](CC(C)C)NC(=O)[C@H](Cc1ccccc1)NC(=O)CNC(=O)[C@H](CC(C)C)NC(=O)[C@H](CC(N)=O)NC(=O)[C@H](CC(=O)O)NC(=O)[C@@H](N)CCC(=O)O)[C@@H](C)O)[C@@H](C)O)C(C)C)C(=O)N[C@@H](CC(N)=O)C(=O)N[C@@H](CC(=O)O)C(=O)N[C@@H](Cc1c[nH]c2ccccc12)C(=O)N[C@H](C(=O)N[C@@H](CCC(=O)O)C(=O)N[C@H](C(=O)N[C@H](C(=O)N[C@@H](CCC(N)=O)C(=O)N[C@@H](Cc1ccccc1)C(=O)O)[C@@H](C)O)[C@@H](C)CC)[C@@H](C)O [HSV 34] | 743 nM | > 100000 nM |  |  | 35 nM |  | 10200 nM |  | 115 nM |  |  | 175 nM |  | 632 nM |  | 164 nM | 316 nM |  | 2020 nM | 85 nM | IC50 ([3]; IC50 DR1): 40 nM
CC[C@H](C)[C@H](N)C(=O)N[C@H](C(=O)N[C@@H](CCC(N)=O)C(=O)N[C@@H](Cc1ccccc1)C(=O)N[C@H](C(=O)N[C@@H](CC(C)C)C(=O)N[C@@H](CCC(=O)O)C(=O)N[C@@H](Cc1c[nH]cn1)C(=O)N[C@@H](CCCNC(=N)N)C(=O)N[C@@H](C)C(=O)N[C@@H](CCCCN)C(=O)NCC(=O)N[C@@H](CO)C(=O)N[C@@H](CS)C(=O)N[C@@H](CCCCN)C(=O)N[C@@H](Cc1ccc(O)cc1)C(=O)N[C@@H](C)C(=O)N[C@@H](CC(C)C)C(=O)N1CCC[C@H]1C(=O)N[C@@H](CC(C)C)C(=O)N[C@@H](CCCNC(=N)N)C(=O)N[C@H](C(=O)N1CCC[C@H]1C(=O)N1CCC[C@H]1C(=O)N[C@@H](CO)C(=O)N[C@@H](C)C(=O)N[C@@H](CS)C(=O)N[C@@H](CC(C)C)C(=O)N[C@@H](CO)C(=O)N1CCC[C@H]1C(=O)N[C@@H](CCC(N)=O)C(=O)O)[C@@H](C)CC)[C@@H](C)CC)[C@@H](C)O [HSV 38] |  |  |  |  |  |  |  |  |  | 8 |  |  |  |  |  |  |  |  |  |  | 
